PubChem BioAssay AID314 (DTP/NCI, 2004)
“And” between values parts separate entries of the source, which are not always exact repeats. Equal entries are not always repeated. Toxic doses and inconclusive results are not listed. How the source made its calls: active means survival T/C of 150% or more; inactive means T/C below 125% in these data. Starred links: 1 amine or outer side, 2 acyl side, 3 side chain; linkers in the order of their positions; H or OH if unused. Positions of bridges follow the written chain, without caps; N, C: chain ends. Non-standard residues stand in square brackets, D forms with d. Residues, ends and D or L forms follow the SMILES beside them. Chains are numbered I, II in the order given. Actinocin(9to1) = Cc1c2oc3c(C)ccc(C(=O)[*:1])c3nc-2c(C(=O)[*:2])c(N)c1=O; aThr = C[C@H](O)[C@H](N)C(=O)O; NMeV = CN[C@H](C(=O)O)C(C)C; Sar = CNCC(=O)O

Tested on: DBA/2 mice, P1534 leukemia ip, survival T/C
Test: NCI In Vivo Anticancer Drug Screen. Data for tumor model P1534 Leukemia (intraperitoneal) in DBA/2 mice
Conditions: endpoint: mean survival time, higher = longer survival
Experimental: The antitumor activity of compounds was measured in mice bearing transplantable tumors. Survival or tumor size were measured and the results are expressed as the measurement made in the treated group (T) divided by the measurement made in the vehicle treated control group (C). The tumor model used in this assay is P1534 Leukemia (intraperitoneal) in DBA/2 mice

[1] = dose: 5.0 mg/kg/injection, schedule: Q01DX010 (ip), vehicle: saline
[2] = dose: 10.0 mg/kg/injection, schedule: Q01DX010 (ip), vehicle: saline
[3] = dose: 20.0 mg/kg/injection, schedule: Q01DX010 (ip), vehicle: saline
[4] = dose: 40.0 mg/kg/injection, schedule: Q01DX010 (ip), vehicle: saline
[5] = dose: 0.13 mg/kg/injection, schedule: Q01DX010 (ip), vehicle: saline
[6] = dose: 0.25 mg/kg/injection, schedule: Q01DX010 (ip), vehicle: saline
[7] = dose: 0.5 mg/kg/injection, schedule: Q01DX010 (ip), vehicle: saline
[8] = dose: 1.0 mg/kg/injection, schedule: Q01DX010 (ip), vehicle: saline
[9] = dose: 3.13 mg/kg/injection, schedule: Q01DX010 (ip), vehicle: saline
[10] = dose: 6.25 mg/kg/injection, schedule: Q01DX010 (ip), vehicle: saline
[11] = dose: 12.5 mg/kg/injection, schedule: Q01DX010 (ip), vehicle: saline
[12] = dose: 25.0 mg/kg/injection, schedule: Q01DX010 (ip), vehicle: saline
[13] = dose: 50.0 mg/kg/injection, schedule: Q01DX010 (ip), vehicle: saline
[14] = dose: 100.0 mg/kg/injection, schedule: Q01DX010 (ip), vehicle: saline
[15] = dose: 200.0 mg/kg/injection, schedule: Q01DX010 (ip), vehicle: saline
[16] = dose: 8.0 mg/kg/injection, schedule: Q01DX010 (ip), vehicle: saline
[17] = dose: 1.25 mg/kg/injection, schedule: Q01DX010 (ip), vehicle: saline
[18] = dose: 125.0 mg/kg/injection, schedule: Q01DX010 (ip), vehicle: saline
[19] = dose: 250.0 mg/kg/injection, schedule: Q01DX010 (ip), vehicle: saline
[20] = dose: 500.0 mg/kg/injection, schedule: Q01DX010 (ip), vehicle: saline
[21] = dose: 2.0 mg/kg/injection, schedule: Q01DX010 (ip), vehicle: saline
[22] = dose: 4.0 mg/kg/injection, schedule: Q01DX010 (ip), vehicle: saline

Measured: T/C

Cc1c2oc3c(C)ccc(C(=O)N[C@@H]4C(=O)N[C@H](C(C)C)C(=O)N5CCC[C@H]5C(=O)N(C)CC(=O)N(C)[C@@H](C(C)C)C(=O)O[C@H]4C)c3nc-2c(C(=O)N[C@@H]2C(=O)N[C@H](C(C)C)C(=O)N3CCC[C@H]3C(=O)N(C)CC(=O)N(C)[C@@H](C(C)C)C(=O)O[C@H]2C)c(N)c1=O (I: [aThr][dV]P[Sar][NMeV] / II: [aThr][dV]P[Sar][NMeV]; ester I:1-I:C, II:1-II:C; linker I:N-II:N via Actinocin(9to1))
inactive: dose: 0.02 mg/kg/injection, schedule: Q01DX010 (ip), vehicle: other 93 % of control | dose: 0.03 mg/kg/injection, schedule: Q01DX010 (ip), vehicle: other 104 % of control | dose: 0.03 mg/kg/injection, schedule: Q01DX010 (ip), vehicle: saline 97 % of control | dose: 0.06 mg/kg/injection, schedule: Q01DX010 (ip), vehicle: other 103 % of control | dose: 0.06 mg/kg/injection, schedule: Q01DX010 (ip), vehicle: saline 100 % of control

Cc1cc(N(CCCl)CCCl)ccc1N=Nc1ccccc1C(=O)O
inactive: [1] 114 % of control and 123 % of control | [2] 118 % of control | [3] 107 % of control and 111 % of control

CN(Cc1cnc2nc(N)nc(N)c2n1)c1c(Cl)cc(C(=O)NC(CCC(=O)O)C(=O)O)cc1Cl (configuration not stated)
inactive: [3] 120 % of control

CN(N=O)C(=O)NC(C=O)C(O)C(O)C(O)CO (configuration not stated)
inactive: [4] 122 % of control | dose: 90.0 mg/kg/injection, schedule: Q01DX010 (ip), vehicle: saline 100 % of control | dose: 135.0 mg/kg/injection, schedule: Q01DX010 (ip), vehicle: saline 86 % of control

CN1CCCC1c1cccnc1 (configuration not stated)
inactive: [5] 100 % of control | [6] 100 % of control | [7] 100 % of control | [8] 100 % of control

O=NN(CCCl)C(=O)NCCCl
inactive: dose: 1.57 mg/kg/injection, schedule: Q01DX010 (ip), vehicle: saline 100 % of control and 103 % of control | [9] 103 % of control and 111 % of control | [10] 100 % of control

CCN(CC)CCNc1ccc(C)c2sc3ccccc3c(=O)c12
inactive: [2] 108 % of control | [3] 108 % of control | [4] 112 % of control | dose: 80.0 mg/kg/injection, schedule: Q01DX010 (ip), vehicle: saline 100 % of control

CS(=O)(=O)OCCC(=O)N1CCN(C(=O)CCOS(C)(=O)=O)CC1
inactive: [9] 107 % of control | [10] 103 % of control | [11] 119 % of control | [12] 120 % of control

COC1C(OC(N)=O)C(O)C(Oc2ccc3c(O)c(NC(=O)c4ccc(O)c(CC=C(C)C)c4)c(=O)oc3c2C)OC1(C)C (configuration not stated)
inactive: [10] 100 % of control | [11] 104 % of control | [12] 100 % of control | [13] 103 % of control and 104 % of control | [14] 96 % of control | [15] 92 % of control

C[C@]12CCC(=O)C[C@H]1CC[C@@H]1[C@@H]2CC[C@@]2(C)[C@H]1CC[C@]2(C)O
inactive: dose: 50.0 mg/kg/injection, schedule: Q01DX010 (sc), vehicle: saline 104 % of control | dose: 100.0 mg/kg/injection, schedule: Q01DX010 (sc), vehicle: saline 100 % of control | dose: 200.0 mg/kg/injection, schedule: Q01DX010 (sc), vehicle: saline 100 % of control | dose: 400.0 mg/kg/injection, schedule: Q01DX010 (sc), vehicle: saline 108 % of control

Nc1nc(SCc2ccccc2)c2[nH]cnc2n1
inactive: [16] 92 % of control and 100 % of control | dose: 16.0 mg/kg/injection, schedule: Q01DX010 (ip), vehicle: saline 100 % of control | dose: 31.3 mg/kg/injection, schedule: Q01DX010 (ip), vehicle: saline 88 % of control | dose: 32.0 mg/kg/injection, schedule: Q01DX010 (ip), vehicle: saline 100 % of control and 103 % of control

S=P(N1CCOCC1)(N1CC1)N1CC1
inactive: [17] 100 % of control and 103 % of control | dose: 2.5 mg/kg/injection, schedule: Q01DX010 (ip), vehicle: saline 92 % of control and 100 % of control

COC12C(COC(N)=O)C3=C(C(=O)C(C)=C(N)C3=O)N1CC1C2N1C (configuration not stated)
inactive: dose: 2.5 mg/kg/injection, schedule: Q01DX010 (sc), vehicle: saline 108 % of control | dose: 5.0 mg/kg/injection, schedule: Q01DX010 (sc), vehicle: saline 108 % of control | dose: 10.0 mg/kg/injection, schedule: Q01DX010 (sc), vehicle: saline 100 % of control

N=C(N)SCc1c2ccccc2c(CSC(=N)N)c2ccccc12
inactive: [1] 100 % of control | [2] 96 % of control

O=C(O)c1[nH]c(=O)[nH]c(=O)c1F
inactive: [17] 86 % of control

O=c1[nH]c(=O)n(C2CC(O)C(CO)O2)cc1I (configuration not stated)
inactive: [18] 103 % of control and 107 % of control | [19] 103 % of control and 110 % of control | [20] 107 % of control and 114 % of control and 121 % of control | dose: 1000.0 mg/kg/injection, schedule: Q01DX010 (ip), vehicle: saline 110 % of control

CC(CCC(C)OS(C)(=O)=O)OS(C)(=O)=O (configuration not stated)
inactive: [21] 96 % of control and 103 % of control | [22] 100 % of control and 107 % of control | [16] 96 % of control and 100 % of control

O[C@H](CN1CC1)[C@@H](O)CN1CC1
inactive: [5] 88 % of control | [6] 96 % of control

O=C(Nc1ccc(C2=NCCN2)cc1)c1cc(Cl)cc(C(=O)Nc2ccc(C3=NCCN3)cc2)c1
inactive: dose: 140.0 mg/kg/injection, schedule: Q01DX010 (ip), vehicle: saline 96 % of control and 100 % of control | dose: 210.0 mg/kg/injection, schedule: Q01DX010 (ip), vehicle: saline 92 % of control and 107 % of control | dose: 315.0 mg/kg/injection, schedule: Q01DX010 (ip), vehicle: saline 96 % of control and 115 % of control | dose: 473.0 mg/kg/injection, schedule: Q01DX010 (ip), vehicle: saline 103 % of control and 111 % of control

N=C(N)c1ccc(Nc2ccc(C(=N)N)cc2)cc1
inactive: dose: 6.0 mg/kg/injection, schedule: Q01DX010 (ip), vehicle: saline 96 % of control | dose: 12.0 mg/kg/injection, schedule: Q01DX010 (ip), vehicle: saline 89 % of control and 100 % of control

N#CCSc1ncnc2nc[nH]c12
inactive: dose: 15.0 mg/kg/injection, schedule: Q01DX010 (ip), vehicle: saline 89 % of control | dose: 30.0 mg/kg/injection, schedule: Q01DX010 (ip), vehicle: saline 100 % of control | dose: 60.0 mg/kg/injection, schedule: Q01DX010 (ip), vehicle: saline 96 % of control and 100 % of control

COc1cc([C@@H]2c3cc4c(c(O)c3C[C@H]3COC(=O)[C@@H]32)OCO4)cc(OC)c1OC
inactive: dose: 39.0 micrograms/kg/injection, schedule: Q01DX010 (ip), vehicle: saline 100 % of control | dose: 78.0 micrograms/kg/injection, schedule: Q01DX010 (ip), vehicle: saline 103 % of control | dose: 156.0 micrograms/kg/injection, schedule: Q01DX010 (ip), vehicle: saline 90 % of control

c1ccc(CCSc2ncnc3nc[nH]c23)cc1
inactive: [18] 100 % of control | [19] 100 % of control | [20] 104 % of control

N=[N+]=CC(=O)OCC(N)C(=O)O (configuration not stated)
inactive: [7] 94 % of control | [8] 103 % of control and 120 % of control | [21] 120 % of control and 123 % of control | [22] 117 % of control

CC(=O)[C@H]1CC[C@H]2[C@@H]3C[C@H](C)C4=CC(=O)CC[C@]4(C)[C@H]3C(=O)C[C@]12C
inactive: dose: 6.25 mg/kg/injection, schedule: Q01DX010 (sc), vehicle: steriod suspending solution 100 % of control | dose: 12.5 mg/kg/injection, schedule: Q01DX010 (sc), vehicle: steriod suspending solution 107 % of control | dose: 25.0 mg/kg/injection, schedule: Q01DX010 (sc), vehicle: steriod suspending solution 103 % of control | dose: 50.0 mg/kg/injection, schedule: Q01DX010 (sc), vehicle: steriod suspending solution 107 % of control

O=c1cnn(C2OC(CO)C(O)C2O)c(=O)[nH]1 (configuration not stated)
inactive: [13] 103 % of control and 117 % of control | [14] 96 % of control and 113 % of control | [15] 91 % of control and 108 % of control

CN[C@H]1CCc2cc(OC)c(OC)c(OC)c2-c2ccc(OC)c(=O)cc21
inactive: dose: 0.63 mg/kg/injection, schedule: Q01DX010 (ip), vehicle: other 111 % of control and 115 % of control | dose: 1.25 mg/kg/injection, schedule: Q01DX010 (ip), vehicle: other 100 % of control and 103 % of control

Cn1cnc([N+](=O)[O-])c1Sc1ncnc2nc[nH]c12
inactive: [11] 96 % of control
